This is an account of results in patent US6652861B1, “Anti-HIV and anti-tumor peptides and truncated polypeptides of MAP30” (priority 1999, dated 2003).

Series [1] relates to human spermatozoa. Kind of series: Sperm motility by counting. It is filed as cell-based. As to the method:
Ten semen samples were randomly obtained form ten donors at the Andrology laboratory of the Department of Obstetrics and Gynecology at NYU Medical Center. All specimens were normal semen samples according to WHO guidelines. Each sample consisted of greater than or equal to 20 million motile sperm per milliliter. Sperm count and motility were determined by placing the sperm on a hackler chamber and assessing the samples under a 40× power microscopic field.
Each semen sample was washed two consecutive times in Ham's F-10 media. The washed sperm was spun to a pellet and then re-suspended in media to a concentration of 40 million spermatocytes per milliliter with at least 50% motility. Five microliters of sperm were then suspended in 100 microliters each of PBS, serial 10-fold dilutions of MAP30, or GAP31 or N-9 from 100 to 0.1 microg/ml. N-9 was used as a positive control. Motility and forward progression were assessed at each log concentration of the three compounds. The exposure time ranged form five minute to two hours.

The subject of another series is HIV-1(IIIB). In words: Anti-HIV assay: p24 expression in HIV-infected MT-4 T lymphocytes. It is filed as cell-based. As to conditions: for EC50 / EC50 anti-HIV, p24 / EC100 anti-HIV, p24 (complete inhibition of HIV-1) / EC100 anti-HIV, p24 (molar): HIV-1 infected MT4 lymphocytes; for concentration of complete inhibition of p24 expression (FIG. 9): p24 ELISA of HIV-infected MT4 culture supernatant. The protocol:
Anti-HIV activity was assayed by inhibition on viral core protein, p24 expression in HIV-infected MT-4 T lymphocytes by RIA as described previously (World Health Organization (1992); Bourinbaiar et al (1995)). Briefly, the cells were plated in duplicated in 96-well microtiter plates at 1×10^5 cells/ml in the presence of serial 10-fold dilution of MAP30, or GAP31 or NP-9 at concentrations from […]. The cells were then infected with HIV-1(IIIB) at 100 infectious units per cell. The culture supernatants were collected on day 3 and were used for p24 assay using ELISA kit from Coulter (Hialeah, Fla.). Duplicates of original viral inoculum in the same volume of the medium without the target cells and incubated for 3 days were used as blanks. The blank values were subtracted from wells in which virus was propagated in host MT4 cells with or without drugs.

For series [2], the system named is human spermatozoa. Kind of series: Sperm vitality by eosin Y/nigrosine staining. The format is cell-based. Particulars: vital stain. The protocol:
The vitality staining was carried out by adding two drops of eosin Y to one drop of sperm sample and mixing for ten seconds. Two drops of nigrosine were then added to this mixture, and the solutions as mixed for 30 seconds. Slides were made from one drop of each solution mixed with MAP30, or GAP31, or N-9.

The next series has as its system HSV-2. Kind of series: Anti-HSV assay by ELISA in WI-38 cells. It is filed as cell-based. As to the method:
Anti-HSV activity was assayed with HSV-2 by ELISA (Meridian Diagnostics, Inc., Cincinnati, Ohio) as reported previously (Bourinbaiar et al (1996)). Human embryonic lung fibroblast cell line WI-38, (CCL-75, from ATCC, Rockville, Md.) was used as target cells. HSV-2 (VR-734, strain G) derived from a human with the genital infection was obtained from ATCC, Rockville, Md.

Series [3] relates to endoproteinase Lys-C and Glu-C (V8). In words: Resistance to limited proteolysis with Lys-C and V8 (SDS-PAGE). As to conditions: Lys-C or V8, up to 24 hr. The protocol: MAP30 and GAP31 were subjected to proteolysis with sequencing grade endoproteinase Lys-C and Glu-C (Promega, Madison, Wis.). Lys-C cleaves at the carboxylic side of lysine (Elliott et al., 1986). Glu-C, also known as V8 protease, cleaves specifically at the carboxylic side of glutamic acid in the presence of ammonium ion (Drapeau et al., 1972). In the absence of ammonium ion, Glu-C acts at both aspartic and glutamic acids. The reaction buffers for Lys-C and V8 were 25 mM Tris-HCl, pH 7.8, 1 mM EDTA and 50 mM ammonium bicarbonate, pH 7.8 respectively.
FIGS. 1A-1D show time course SDS-PAGE patterns of Lys-C and V8 digestions of MAP30 and GAP31. Three major fragments were produced in each case. These fragments are designated MLF25, MLF21, MLF0.8 (MAP30 Lys-C Fragments of 25, 21, and 0.8 kDa, FIG. 1A), MVF25, MVF21, MVF0.8 (MAP30 V8 Fragments of 25, 21, and 0.8 kDa, FIG. 1B), GLF26, GLF22, GLF0.6 (GAP31 Lys-C Fragments of 26, 22 and 0.6 kDa, FIG. 1C), and GVF26, GVF22, GVF0.6 (GAP31 V8 Fragments of 26, 22 and 0.6 kDa, FIG. 1D). The smaller peptides are C-terminal fragments produced during proteolysis and they are sensitive to further digestion to short peptides.

The test system of a further series is HIV-1. In words: Anti-HIV activity: viral core protein p24 expression in HIV-1 infected H9 T lymphocytes by RIA. The format is cell-based. As to the method:
(§1) In FIG. 3A, anti-HIV activity was assayed by HIV core protein p24 expression in H9 cells (Lee-Huang et al., 1990 and Lee-Huang et al., 1991). […] Anti-tumor activity was determined by in vitro proliferation of human breast tumor MAD-MB-231 cell by [^3H] thymidine incorporation (Lee-Huang et al., 1999) and the average control value was about 1.88×10^5 cpm/ml (FIG. 3B). In FIG. 3C, the cytotoxic effect was measured by the MTS colorimetric assay (Lee-Huang et al., 1999), and in FIG. 3D, the ribosome-inactivation activity was determined by in vitro translation of globin message in a rabbit reticulocyte lysate system (Lee-Huang et al., 1990 and Lee-Huang et al., 1991) and the average control value was about 5.8×10^4 cpm/ml. In each assay, triplicates were carried in two independent experiments, and the results are normalized to values obtained in control assays. Standard deviations are indicated by error bars.
(§2) Anti-HIV activity was determined by inhibition on the expression of viral core protein p24 expression by RIA (Lee-Huang et al., 1990; Lee-Huang et al., 1991 and Lee-Huang et al., 1999). Anti-tumor activity was determined by the effects of the peptide fragments on the growth of human breast tumor cell line MDA-MB-231 by [^3H] thymidine incorporated (Lee-Huang et al., 1999 and Rybak et al., 1994). HIV-integrase inhibition was assayed by the three specific reactions catalyzed by the integrase, namely, 3′ processing (specific cleavage of the dinucleotide GT from the viral substrate HIV-LTR U3), strand transfer (integration) and disintegration (Lee-Huang et al., 1995). Topological inactivation was measured by the conversion of supercoiled HIV-LTR DNA to relaxed and linear forms (Huang et al., 1992). Ribosome inactivation was determined by the translation of globin message in a rabbit reticulocyte lysate system (Lee-Huang et al., 1990 and Lee-Huang et al., 1991).
(§3) To analyze the structural and activity relationship of the anti-HIV proteins, each of the homogeneous proteolytic fragments was assayed for anti-HIV and anti-tumor activities. […] Anti-HIV activity was measured by viral core protein p24 expression in HIV-1 infected H9 T lymphocytes by RIA (Lee-Huang et al., 1990 and Lee-Huang et al., 1991). Anti-tumor activity was measured by proliferation of human breast tumor MDA231 cells (Lee-Huang et al., 1999 and Rybak et al., 1994). […] No significant difference in the anti-HIV and anti-tumor activities was detected between these core fragments.

A further series deals with supercoiled HIV-LTR DNA. In words: Topological inactivation: conversion of supercoiled HIV-LTR DNA to relaxed and linear forms. Particulars: supercoiled HIV-LTR into relaxed and linear forms. The format is biochemical. As to the method:
(§4) In FIG. 4A, the inhibition on HIV-integrase was assayed by the 3′-processing reaction of HIV-1 integrase (Lee-Huang et al., 1995). This activity was assayed by specific cleavage of the dinucleotide GT from 5′-[^32P] labeled 21-mer of the HIV-U3-LTR substrate. The effect was measured by the inhibition of the formation of labeled 19-mer product by autoradiography of urea gels. […] In FIG. 4B, topological inactivation was measured by the conversion of supercoiled HIV-LTR DNA (S) into relaxed (R) and linear (L) forms by agarose gel electrophoresis (Huang et al., 1992). Samples that cause topological inactivation show L and R and no S forms.
as §2

Series [4] has as its system ribosome (rabbit reticulocyte lysate system). Kind of series: Ribosome inactivation: translation of globin message in a rabbit reticulocyte lysate system. It is filed as biochemical. As to conditions: [3H]-labelled leucine incorporation. As to the method:
as §1, §2
The anti-HIV and anti-tumor fragments, MLF25, MLF21, MVF25, MVF21, GLF26, GLF22, GVF26, GVF22 are active in HIV-integrase inhibition as assayed by the 3′-processing (FIG. 4A), strand transfer and disintegration (data not shown) as well as in DNA topological inactivation as assayed by the conversion of supercoiled HIV-LTR into relaxed and linear forms (FIG. 4B). […] Moreover, the C-terminal regions of these proteins are required for N-glycosidase activity, but not for antiviral and anti-tumor activities.

In series [5] the test system is human breast tumor cell line MDA-MB-231. In words: Anti-tumor activity: proliferation of MDA-MB-231 cells by [3H] thymidine incorporation. As to conditions: MDA231 proliferation. It is filed as cell-based. As to the method: as §1, §2, §3
On the technique in general: Dividing cells build labelled thymidine or BrdU into new DNA.

For the next series, the target named is T1, HIV-1 integrase (Human immunodeficiency virus type 1 group M subtype B, UniProt P04585).
T1 construct: assayed by the 3′-processing reaction of HIV-1 integrase
In words: HIV-integrase inhibition (3'-processing, strand transfer, disintegration). It is filed as biochemical. Particulars: strand transfer and disintegration. The protocol:
as §4, §2

Entries after “also recorded” stand apart in the source; their conditions may differ.

As for “GAP31: Gelonium Anti-HIV Protein 31 kDa, native full-length, SEQ ID NO:2, from Gelonium multiflorum”, the “inhibition of sperm motility at 100 μg/ml” value in the series on human spermatozoa [1] is “only marginal effect”. Moreover, in the series on human spermatozoa [1] (0.01 to 0.1 μg/ml), the “effect on sperm motility at the antiviral EC100 concentrations” value is reported as “no significant effect on sperm motility”. Besides, the “spermicidal activity / motility inhibition over the entire concentration ranges tested” value with human spermatozoa [1] (0.1 to 100 μg/ml) is given as “little spermicidal activity; also recorded: little inhibition”. In the series with HIV-1(IIIB), a half-maximal response (EC50) required 0.3 nM; the “EC50 anti-HIV, p24” value came out at 0.001 µg/mL; the “EC100 anti-HIV, p24 (complete inhibition of HIV-1)” value came to 0.1 µg/mL; the “EC100 anti-HIV, p24 (molar)” value was 0.0033 µM. Moreover, in the series on HIV-1(IIIB), the “concentration of complete inhibition of p24 expression (FIG. 9)” value is 0.1 microgram/ml. In the series on HIV-1(IIIB) (anti-HIV p24, MT4), the “fold more potent than N-9 in terms of molar concentration at EC50” value was “about 540 fold” and the “fold more potent than N-9 in terms of weight per volume” value is reported as “about 100 fold”. Besides, the “sperm vitality after treatment” value in the series on human spermatozoa [2] was “remained vital and impermeable to the pink dye; also recorded: not toxic to the spermatozoa”. In addition, the “EC100 for HSV-2 (complete inhibition)” value in the series on HSV-2 stood at 0.1 µg/mL. For the same substance, the resistance to proteolysis result in [3] is reported as “no proteolysis was detected up to 24 hr of treatment even at as much as 5% (W/W) of enzyme”.
Turning to “Nonoxynol-9 [Fragment N-9, reference compound]”, in the series on human spermatozoa [1], the “concentration of complete inhibition of sperm motility (FIG. 7)” value came to 100 micrograms/ml and the “inhibition of sperm motility at 100 μg/ml” value is reported as “totally inhibited”. Also, in the series with human spermatozoa [1] (10 μg/ml, relative to PBS as 100% motility, mean ± SEM), the “inhibition in motility at 10 μg/ml” value came to 43±5%. The same substance registered an EC50 spermicidal activity with human spermatozoa [1] (50% inhibition of sperm motility) of 20 µg/mL. Besides, the EC100 spermicidal activity in the series on human spermatozoa [1] (100% inhibition of sperm motility) is 100 µg/mL. The “inhibition on sperm motility at the antiviral EC100 concentrations” value in the series on human spermatozoa [1] (N-9 at 10 μg/ml and 50 μg/ml) fell in the range of 50 to 80%. Moreover, in the series on HIV-1(IIIB), the EC50 was found to be 162 nM; the “EC50 anti-HIV, p24” value worked out at 0.1 µg/mL; the “EC100 anti-HIV, p24 (complete inhibition of HIV-1)” value came to 10 µg/mL; the “EC100 anti-HIV, p24 (molar)” value was 16.2 µM. The “concentration of complete inhibition of p24 expression (FIG. 9)” value with HIV-1(IIIB) came to 10 microgram/ml. Also, the “sperm vitality after treatment” value in the series on human spermatozoa [2] is recorded as “potent spermicidal effect; also recorded: all sperm wimples were dead”. For the same substance, the “EC100 for HSV-2 (complete inhibition)” value in the series with HSV-2 was 50 µg/mL.
For the substance “GLF26: GAP31 Lys-C fragment, 25-26 kDa, residues 11-226 of SEQ ID NO:2”, the “anti-HIV activity” value in the series with HIV-1 is “Most of the anti-HIV and anti-tumor activity”. Moreover, the “DNA topological inactivation” value with supercoiled HIV-LTR DNA was “active”. Moreover, the resistance to proteolysis entry in series [3] is given as “remained intact even after 24 hr of proteolysis”. Also, in [4], the “ribosome inactivation” value is recorded as “none of these fragments are active”. The “anti-tumor activity” value in series [5] is “Most of the anti-HIV and anti-tumor activity”. Also, the “HIV-integrase inhibition” value with HIV-1 integrase is listed as “active”.

As a reminder, the EC50 is the concentration needed to bring the measured effect to its halfway point. A high value points to a need for much substance.
